Source: patent publication US12721875B2, “Drug for treatment of breast cancer with antler and ginseng as sovereign drug and preparation method and application thereof” (Jilin University, priority 2024, dated 2026)

Tests used:
breast cancer = test: Clinical observation and typical clinical cases of breast cancer patients; assay type: in vivo, human; settings: clinical case 1, Abemaciclib and Fulvestrant for 3 days
4T1 breast cancer cells = test: 4T1 triple-negative mice breast cancer model, second batch, DTX with or without medium dose preparation, 31 days; assay type: in vivo, BALB/c mice
Protocol: after the required amount of 4T1 breast cancer cells were cultured, the cells were resuspended in phosphate-buffered saline (PBS) after trypsin digestion and centrifugation, and the cells were counted and diluted to a cell concentration of 1×10^7 cells/mL. All mice were intraperitoneally injected with 50 mg/kg pentobarbital sodium and 0.5% lidocaine solution for infiltration anesthesia, under anesthesia, 0.1 mL cell suspension of each mouse was inoculated in the third pair of mammary fat pads on the left side, the cotton swab was pressed for a moment to avoid cell outflow after inoculation. During the inoculation process, the pipette blows the cell suspension to ensure uniform suspension.
experimental BALB/c mice were divided into 3 groups with 10 mice in each group. They were the PBS group, chemotherapy […] (DTX) group, and DTX+medium dose (0.85 mg/kg) group.
The mice were administered by gavage on the second day after tumor implantation, the DTX group was intraperitoneally injected with 0.2 mL of DTX, once a week. The DTX+medium dose group was intraperitoneally injected with DTX at the first and fourth weeks of inoculation and combined with the medium dose of Antler-Ginseng compound preparation. The tumor volume (L×W2×0.4) and body weight of mice were measured on the 7th day after inoculation. For a total of 31 days. Flow cytometry analysis: three mice in each group of PBS group and DTX+medium dose group were selected randomly for flow cytometry analysis of tumor tissue and spleen. All statistical analyses were performed by using GraphPad Prism 9.0, P<0.05 was considered statistically significant.
6. The Antler-Ginseng compound preparation reduces the course of chemotherapy and the frequency of medication, and the anti-tumor effect is better than the anti-tumor effect of single-agent chemotherapy. […]

Which “increase of transaminase (liver function)” value (breast cancer) does the source give for CCN1CCN(Cc2ccc(Nc3ncc(F)c(-c4cc(F)c5nc(C)n(C(C)C)c5c4)n3)nc2)CC1 [Abemaciclib] here?
Its value is 10 times.

How did the “body weight of the experimental animals” value (4T1 breast cancer cells; DTX once a week, combination with halved chemotherapy frequency plus medium dose preparation) turn out when CC(=O)O[C@@]12CO[C@@H]1C[C@H](O)[C@@]1(C)C(=O)[C@H](O)C3=C(C)[C@@H](OC(=O)[C@H](O)[C@@H](NC(=O)OC(C)(C)C)c4ccccc4)C[C@@](O)([C@@H](OC(=O)c4ccccc4)[C@H]21)C3(C)C [DTX, docetaxel] was run?
The value was “significantly reduced”.

What about the “tumor volume compared with the PBS group” value (4T1 breast cancer cells; P<0.05) of the same compound?
Its value is “significantly lower”.

What about the “tumor weight compared with the PBS group” value (4T1 breast cancer cells; P<0.05) of the same compound?
Its value is “significantly lower”.
